{
  "source": "patent US20250381165A1",
  "about": "“Method of Use for Benzofuran Compounds” (Tampa Bay Research Institute, Inc., priority 2024, published 2025)",
  "key": {"[1]": {"target": "T1, H-2Kb on DC2.4 (Mus musculus, UniProt P01901)", "T1 construct": "DC2.4 are a C57Bl/6 lineage murine cell line and as such they express MHC class I H-2Kb and H-2Db; endogenous in cells; host or cells: DC2.4", "experiment": "FITC-labeled Trp2 peptide binding to DC2.4", "format": "cell-based, murine", "conditions": "50 μg/mL BzFβ 1 h, 1 h pulse 0-1000 nM peptide", "procedure": "Cells were cultured as previously described and treated for various times as indicated in results and figure legends. Cells were centrifuged and washed using cold FACS buffer (DPBS with 5% FBS, 2 mM EDTA, 0.1% sodium azide). Cells were stained with N-terminal fluorophore-conjugated […] FITC labeled Trp2180-188 peptide ([…]) and N-terminal FITC labeled H-2Db peptide […] (Anaspec) cells were incubated with Fc block (bioLegend™; cat. no. 101320) for 10 min to 15 min to inhibit non-specific binding, followed by peptide for 1-4 h, before washing and analysis. After washing, the cells were subjected to flow cytometric analysis with the Attune NxT Flow Cytometer (Invitrogen™). Cells were gated based on live single-cell populations and positives were assessed using isotype controls and fluor-minus-one analysis when needed. Data were analyzed using the Attune NxT software or FlowJo versions 10.7 and 10.8.\nWhile H-2Kb is the dominant haplotype, BzFβ was investigated to determine if the compound could assist peptide binding on H-2Kb and H-2Db. […]"}, "[2]": {"target": "T2, MHC class I/SIINFEKL complex on DC2.4 (Mus musculus, UniProt P01901)", "T2 construct": "DC2.4 are a C57Bl/6 lineage murine cell line and as such they express MHC class I H-2Kb and H-2Db; endogenous in cells; host or cells: DC2.4 (murine dendritic cell line, from Dr. Kenneth Rock)", "T2 sequence (P01901 22-369)": "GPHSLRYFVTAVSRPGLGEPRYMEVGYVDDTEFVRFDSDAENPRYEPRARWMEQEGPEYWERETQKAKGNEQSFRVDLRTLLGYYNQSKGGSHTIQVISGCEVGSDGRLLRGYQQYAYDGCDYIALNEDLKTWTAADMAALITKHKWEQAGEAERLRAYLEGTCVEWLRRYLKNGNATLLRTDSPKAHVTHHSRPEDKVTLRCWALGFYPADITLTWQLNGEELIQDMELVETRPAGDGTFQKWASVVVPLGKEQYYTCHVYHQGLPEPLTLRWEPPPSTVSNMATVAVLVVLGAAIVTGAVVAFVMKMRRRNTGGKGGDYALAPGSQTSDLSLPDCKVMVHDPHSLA", "T2 sequence (P01887 21-119 partner)": "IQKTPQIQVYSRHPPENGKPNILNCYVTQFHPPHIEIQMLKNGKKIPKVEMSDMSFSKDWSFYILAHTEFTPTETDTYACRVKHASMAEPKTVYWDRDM", "experiment": "SIINFEKL binding to DC2.4, flow cytometry with 25-D1.16 antibody", "format": "cell-based, murine", "procedure": "To detect binding of peptides to MHC class I H2Kb molecules on various murine cells, the cells were cultured as previously described and treated for various times as indicated in results and figure legends. Cells were centrifuged and washed using cold FACS buffer (DPBS with 5% FBS, 2 mM EDTA, 0.1% sodium azide). Cells were blocked using Fc block (bioLegend™; cat. no. 101320) for 10 min to 15 min to inhibit non-specific binding, followed by staining with fluorophore-conjugated antibody PE-labeled anti-MHC I/SIINFEKL (clone 25-D1.16; Invitrogen™, Thermo Fisher Scientific Inc., Waltham, MA; cat. no. 12-5743-82), for 30 min at 4° C. After washing, the cells were subjected to flow cytometric analysis with the Attune NxT Flow Cytometer (Invitrogen). Cells were gated based on live single-cell populations and positives were assessed using isotype controls and fluor-minus-one analysis when needed. Data were analyzed using the Attune NxT software or FlowJo versions 10.7 and 10.8.\nTo evaluate the potential of BzFβ to enhance peptide loading under conditions used to prepare DC vaccines, 1×10^6 DC2.4 cells were pretreated with 50 μg/mL BzFβ for 1 h in a total volume of 200 μL OptiMEM, then pulsed for 1 h with concentrations of SIINFEKL (1-10 μg/mL) often used for the in vitro production of DC vaccines. The cells were then stained for 30 min in 200 μL HBSS/2% FCS containing 0.4 μg PE-labeled MHC class I/SIINFEKL specific antibody, 25-D1.16.\nBy using an MHC class I H-2K^b specific antibody, a relative comparison of the surface MHC class I was measured before and after BzFβ treatment of DC2.4 and IMG cells. These cells were treated with 25 μg/mL BzFβ for 0-4 h. Cells were centrifuged and washed using cold FACS buffer (DPBS with 5% FBS, 2 mM EDTA, 0.1% sodium azide). […] Cells were gated based on live single-cell populations and positives were assessed using isotype controls and fluor-minus-one analysis when needed. Data were analyzed using the Attune NxT software or FlowJo versions 10.7 and 10.8.\nCultured cells were treated for various times as indicated in results and figure legends. […] Cells were gated based on live single-cell populations and positives were assessed using isotype controls and fluor-minus-one analysis when needed. Data were analyzed using the Attune NxT software or FlowJo versions 10.7 and 10.8."}},
  "note": "Entries after “also recorded” stand apart in the source; their conditions may differ.",
  "data": [
    {"smiles": "O=C(O)/C=C/c1ccc2occc2c1", "note": "[BzFβ, (2E)-3-(1-benzofuran-5-yl)prop-2-enoic acid]", "values": [
      {"measurement": "binding of FITC labeled Trp2 peptide to H-2Kb", "setting": "[1]", "value": "enhance peptide binding on both haplotypes; also recorded: enhancement of the direct binding"},
      {"measurement": "peptide binding under DC vaccine conditions", "setting": "[2]; 50 μg/mL BzFβ 1 h, then 1 h SIINFEKL 1-10 μg/mL", "value": "significant enhancement of peptide binding"},
      {"measurement": "SIINFEKL peptide binding to DC2.4", "setting": "[2]; 25 or 50 μg/mL, up to 24 h", "value": "significantly enhance peptide binding"},
      {"measurement": "peptide detected per cell", "setting": "[2]; 2 h pretreatment 50 μg/mL BzFβ, then 1 h 1, 5 or 10 μg/mL SIINFEKL", "value": "significantly more peptide was detected per cell"},
      {"measurement": "binding of SIINFEKL to surface MHC class I", "setting": "[2]; DC2.4, 25 μg/mL BzFβ 0-4 h", "value": "able to enhance the binding of SIINFEKL"}
    ]}
  ]
}
